Laboratory results: patent publication US20240368151A1, “NOVEL ERGOLINES AND METHODS OF TREATING MOOD DISORDERS” (priority 2021, published 2024)

Test system: C57BL/6 mice
Experiment: Marble burying test (MBT) in mice
Assay type: in vivo, mouse
Conditions: SC, 30-minute period
Method: Compound 1 produced an anxiolytic-like effect in the marble burying test (MBT) in C57BL/6 mice (FIG. 3).
Animals. Adult male C57BL/6 mice, aged 8-10 weeks (body weight 20-25 g) were used in these experiments. Animals were housed under controlled temperatures and 12-hour light/dark cycles (lights on between 07:00-19:00 h), with ad libitum food and water. This study was carried out in strict accordance with the requirements of the Committee for the Purpose of Control and Supervision of Experiments on Animals (CPCSEA), India. All efforts were made to minimize suffering.
Drugs and Drug Administration. Compound 1 was synthesized as described above. Desipramine HCl was commercially obtained. The test compound, vehicle, and the positive control desipramine were administered subcutaneously (SC), with doses calculated based on the freebase. Normal saline was used as the vehicle. All compounds were administered at a volume of 10 mL/kg. All treatments were administered 30 minutes prior to the start of behavioral testing. Group size was n=9-10 per treatment.
Marble Burying Test (MBT). […] Mice were handled for about 2 min daily for the 3 days prior to the beginning of the experimental procedure. […] The total number of marbles buried were counted in three 10-minute time bins (total 30 minutes). […]

Question: How did the “number of marbles buried compared to vehicle, in words” value turn out when `CCCN1C[C@H](C(=O)N(CC)CC)C=C2c3cccc4[nH]cc(c34)C[C@H]21` [Compound 1, (6aR,9R)-N,N-diethyl-7-propyl-4,6,6a,7,8,9-hexahydroindolo[4,3-fg]quinoline-9-carboxamide] was run?
Answer: Its value is “reduced the number of marbles buried”.
